Measurements as given in paper PMC11606603, “The membrane domains of mammalian adenylyl cyclases are lipid receptors” (eLife, 2024).
Values joined by “and” are separate entries in the source; they are usually repeats but may differ in a detail not shown here. Equal values may be shown once. “Also recorded” adds a separate entry of the source.

Legend:
Assay type in all cases: biochemical
[1] = molecular target: T1, mAC1 (Homo sapiens, UniProt Q08828); assay: AC assay, Gsα-stimulated mAC1 in membranes from transfected HEK293 cells; conditions: for Effect of lipid on 300 nM Gsα-stimulated mAC1: 20 µM, in words; for activity [%] (100% = 300nM Gsα stimulation): mAC1, single experiments
T1 construct: Human mAC genes were from GenScript and fitted with a C-terminal FLAG-tag; FLAG (C); made in house; host or cells: HEK293, permanently transfected; membrane preparation
In short: (§1)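 Human AC, FLAG-tagged, stably expressed in HEK293; membranes used as enzyme. 1 mM ATP, 2 mM MgCl2, ATP regeneration, MOPS pH 7.5; cAMP kit readout.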

[2] = molecular target: T2, mAC5 (Homo sapiens, UniProt O95622); assay: AC assay, Gsα-stimulated mAC5 in membranes from transfected HEK293 cells
T2 construct: Human mAC genes were from GenScript and fitted with a C-terminal FLAG-tag; FLAG (C); made in house; host or cells: HEK293, permanently transfected; membrane preparation
In short: as §1

[3] = molecular target: T3, mAC8 (Homo sapiens, UniProt P40145); assay: AC assay, Gsα-stimulated mAC8 in membranes from transfected HEK293 cells; conditions: for mAC8 activity [%] (100% = 300nM Gsα stimulation): 20µM fatty acid concentration
T3 construct: Human mAC genes were from GenScript and fitted with a C-terminal FLAG-tag; FLAG (C); made in house; host or cells: HEK293, permanently transfected; membrane preparation
In short: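 cAMP detected with a Cisbio kit, calibrated by a cAMP standard curve each run. Reaction: 1 mM ATP, 2 mM MgCl2, 3 mM creatine phosphate, 60 μg/ml creatine kinase, 50 mM MOPS pH 7.5. Enzyme source: membranes of stably transfected HEK293 (G418-selected) carrying FLAG-tagged human AC.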

[4] = molecular target: T4, mAC2 (Homo sapiens, UniProt Q08462); assay: AC assay, Gsα-stimulated mAC2 in membranes from transfected HEK293 cells; conditions: for mAC2 activity [%] (100% = 300nM Gsα stimulation); 20µM fatty acid concentration: Figure 5-figure supplement 1 left; for mAC2 activity [%] (100% = 300nM Gsα stimulation): Figure 5 B
T4 construct: Human mAC genes were from GenScript and fitted with a C-terminal FLAG-tag; FLAG (C); made in house; host or cells: HEK293, permanently transfected; membrane preparation
In short: as §1

[5] = molecular target: T5, mAC4 (Homo sapiens, UniProt Q8NFM4); assay: AC assay, Gsα-stimulated mAC4 in membranes from transfected HEK293 cells; conditions: for Effect of lipid on 300 nM Gsα-stimulated mAC4: 20 µM, in words; for activity [%] (100% = 300nM Gsα stimulation): mAC4
T5 construct: Human mAC genes were from GenScript and fitted with a C-terminal FLAG-tag; FLAG (C); made in house; host or cells: HEK293, permanently transfected; membrane preparation
T5 sequence (Q8NFM4 1-1077): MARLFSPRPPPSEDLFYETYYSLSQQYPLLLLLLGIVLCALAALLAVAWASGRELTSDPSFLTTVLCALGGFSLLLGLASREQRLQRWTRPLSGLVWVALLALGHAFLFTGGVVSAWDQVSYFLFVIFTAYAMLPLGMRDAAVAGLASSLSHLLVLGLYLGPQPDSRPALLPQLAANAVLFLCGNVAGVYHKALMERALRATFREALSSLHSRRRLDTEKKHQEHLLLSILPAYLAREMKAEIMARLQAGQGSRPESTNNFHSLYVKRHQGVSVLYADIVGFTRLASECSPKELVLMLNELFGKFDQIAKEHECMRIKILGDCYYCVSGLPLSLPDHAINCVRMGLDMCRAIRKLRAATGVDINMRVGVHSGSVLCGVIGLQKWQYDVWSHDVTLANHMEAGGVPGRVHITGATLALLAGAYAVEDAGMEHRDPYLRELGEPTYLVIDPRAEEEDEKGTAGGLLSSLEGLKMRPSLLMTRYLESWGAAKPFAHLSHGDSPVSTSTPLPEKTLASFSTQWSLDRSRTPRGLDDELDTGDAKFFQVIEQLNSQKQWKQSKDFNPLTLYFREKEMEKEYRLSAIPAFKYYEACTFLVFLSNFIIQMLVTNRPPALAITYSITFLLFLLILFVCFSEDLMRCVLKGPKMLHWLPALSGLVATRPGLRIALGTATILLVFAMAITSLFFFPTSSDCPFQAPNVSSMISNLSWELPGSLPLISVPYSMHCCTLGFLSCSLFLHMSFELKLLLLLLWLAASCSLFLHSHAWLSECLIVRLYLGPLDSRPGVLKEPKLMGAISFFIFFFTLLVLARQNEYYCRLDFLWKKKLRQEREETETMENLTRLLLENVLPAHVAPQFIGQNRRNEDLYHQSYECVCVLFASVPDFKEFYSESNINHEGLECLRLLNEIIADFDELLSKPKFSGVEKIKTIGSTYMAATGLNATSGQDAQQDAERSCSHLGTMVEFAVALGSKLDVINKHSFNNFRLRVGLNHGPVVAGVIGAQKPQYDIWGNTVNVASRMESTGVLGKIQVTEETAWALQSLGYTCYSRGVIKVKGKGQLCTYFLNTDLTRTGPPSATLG
In short: as §1

[6] = molecular target: T6, mAC6 (Homo sapiens, UniProt O43306); assay: AC assay, Gsα-stimulated mAC6 in membranes from transfected HEK293 cells
T6 construct: Human mAC genes were from GenScript and fitted with a C-terminal FLAG-tag; FLAG (C); made in house; host or cells: HEK293, permanently transfected; membrane preparation
In short: as §1

[7] = Figure 5 A, 20 µM oleic acid, 300 nM Gsα

T2 sequence (O95622 whole entry): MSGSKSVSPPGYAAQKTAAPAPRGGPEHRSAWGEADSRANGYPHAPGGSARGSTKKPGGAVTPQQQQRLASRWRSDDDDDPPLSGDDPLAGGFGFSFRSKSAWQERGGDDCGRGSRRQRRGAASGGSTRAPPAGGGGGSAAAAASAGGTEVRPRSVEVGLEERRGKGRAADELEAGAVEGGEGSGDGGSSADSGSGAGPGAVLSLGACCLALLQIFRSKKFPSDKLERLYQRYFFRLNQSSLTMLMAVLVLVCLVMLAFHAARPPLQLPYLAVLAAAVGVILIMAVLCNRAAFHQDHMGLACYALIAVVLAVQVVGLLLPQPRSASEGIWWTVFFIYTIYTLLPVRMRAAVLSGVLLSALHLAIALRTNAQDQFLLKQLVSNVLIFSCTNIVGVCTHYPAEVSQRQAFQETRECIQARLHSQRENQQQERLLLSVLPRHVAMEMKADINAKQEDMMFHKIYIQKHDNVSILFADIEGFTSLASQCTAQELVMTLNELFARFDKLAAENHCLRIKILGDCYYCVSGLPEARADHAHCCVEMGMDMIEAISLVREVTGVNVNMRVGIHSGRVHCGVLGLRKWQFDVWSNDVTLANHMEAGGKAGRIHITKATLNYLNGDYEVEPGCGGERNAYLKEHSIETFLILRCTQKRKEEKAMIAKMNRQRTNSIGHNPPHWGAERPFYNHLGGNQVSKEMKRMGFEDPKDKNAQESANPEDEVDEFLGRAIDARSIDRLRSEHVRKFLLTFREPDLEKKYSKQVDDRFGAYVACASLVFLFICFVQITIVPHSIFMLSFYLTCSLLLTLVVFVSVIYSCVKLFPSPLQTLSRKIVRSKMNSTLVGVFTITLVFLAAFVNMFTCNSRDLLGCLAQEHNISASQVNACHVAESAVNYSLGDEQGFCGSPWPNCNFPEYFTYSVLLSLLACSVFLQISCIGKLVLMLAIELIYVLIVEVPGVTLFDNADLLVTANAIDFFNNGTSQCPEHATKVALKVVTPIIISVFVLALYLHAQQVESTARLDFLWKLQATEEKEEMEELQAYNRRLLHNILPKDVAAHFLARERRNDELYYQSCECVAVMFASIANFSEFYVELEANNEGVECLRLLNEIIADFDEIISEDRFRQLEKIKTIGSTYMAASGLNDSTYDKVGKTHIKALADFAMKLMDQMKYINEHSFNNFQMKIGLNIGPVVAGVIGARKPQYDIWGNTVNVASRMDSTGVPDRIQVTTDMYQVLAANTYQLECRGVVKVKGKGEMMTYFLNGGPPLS
T3 sequence (P40145 whole entry): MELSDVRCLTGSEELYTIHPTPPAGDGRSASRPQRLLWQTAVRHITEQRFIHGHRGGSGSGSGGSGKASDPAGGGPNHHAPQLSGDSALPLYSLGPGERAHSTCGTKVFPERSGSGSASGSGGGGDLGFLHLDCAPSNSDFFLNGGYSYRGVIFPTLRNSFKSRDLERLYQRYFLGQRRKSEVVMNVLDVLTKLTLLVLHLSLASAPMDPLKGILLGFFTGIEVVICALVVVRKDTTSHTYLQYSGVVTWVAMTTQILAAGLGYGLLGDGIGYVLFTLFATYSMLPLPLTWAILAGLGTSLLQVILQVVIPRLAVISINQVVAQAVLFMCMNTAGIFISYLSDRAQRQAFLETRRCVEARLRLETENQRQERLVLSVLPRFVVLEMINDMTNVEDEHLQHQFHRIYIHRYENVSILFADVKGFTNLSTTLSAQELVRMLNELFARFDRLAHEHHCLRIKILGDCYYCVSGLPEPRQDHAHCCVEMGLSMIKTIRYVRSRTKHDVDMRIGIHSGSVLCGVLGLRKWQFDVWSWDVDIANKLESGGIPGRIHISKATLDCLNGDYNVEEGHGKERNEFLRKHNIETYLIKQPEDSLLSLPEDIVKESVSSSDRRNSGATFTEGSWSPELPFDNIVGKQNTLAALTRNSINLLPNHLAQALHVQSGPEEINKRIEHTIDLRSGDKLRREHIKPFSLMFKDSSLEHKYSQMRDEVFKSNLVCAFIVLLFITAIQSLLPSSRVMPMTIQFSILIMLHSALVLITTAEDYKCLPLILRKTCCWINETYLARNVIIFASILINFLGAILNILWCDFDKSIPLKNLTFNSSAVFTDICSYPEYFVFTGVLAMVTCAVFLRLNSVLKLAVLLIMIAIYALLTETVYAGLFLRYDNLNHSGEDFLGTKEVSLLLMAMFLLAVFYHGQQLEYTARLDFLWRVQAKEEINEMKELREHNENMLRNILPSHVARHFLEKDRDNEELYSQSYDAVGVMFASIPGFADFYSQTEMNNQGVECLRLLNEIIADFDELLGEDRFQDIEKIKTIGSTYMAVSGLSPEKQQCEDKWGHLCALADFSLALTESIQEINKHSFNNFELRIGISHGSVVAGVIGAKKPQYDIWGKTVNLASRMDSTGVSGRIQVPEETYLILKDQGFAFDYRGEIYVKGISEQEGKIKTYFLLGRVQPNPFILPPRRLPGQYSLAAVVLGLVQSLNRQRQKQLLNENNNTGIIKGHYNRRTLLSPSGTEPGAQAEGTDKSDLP
T6 sequence (O43306 whole entry): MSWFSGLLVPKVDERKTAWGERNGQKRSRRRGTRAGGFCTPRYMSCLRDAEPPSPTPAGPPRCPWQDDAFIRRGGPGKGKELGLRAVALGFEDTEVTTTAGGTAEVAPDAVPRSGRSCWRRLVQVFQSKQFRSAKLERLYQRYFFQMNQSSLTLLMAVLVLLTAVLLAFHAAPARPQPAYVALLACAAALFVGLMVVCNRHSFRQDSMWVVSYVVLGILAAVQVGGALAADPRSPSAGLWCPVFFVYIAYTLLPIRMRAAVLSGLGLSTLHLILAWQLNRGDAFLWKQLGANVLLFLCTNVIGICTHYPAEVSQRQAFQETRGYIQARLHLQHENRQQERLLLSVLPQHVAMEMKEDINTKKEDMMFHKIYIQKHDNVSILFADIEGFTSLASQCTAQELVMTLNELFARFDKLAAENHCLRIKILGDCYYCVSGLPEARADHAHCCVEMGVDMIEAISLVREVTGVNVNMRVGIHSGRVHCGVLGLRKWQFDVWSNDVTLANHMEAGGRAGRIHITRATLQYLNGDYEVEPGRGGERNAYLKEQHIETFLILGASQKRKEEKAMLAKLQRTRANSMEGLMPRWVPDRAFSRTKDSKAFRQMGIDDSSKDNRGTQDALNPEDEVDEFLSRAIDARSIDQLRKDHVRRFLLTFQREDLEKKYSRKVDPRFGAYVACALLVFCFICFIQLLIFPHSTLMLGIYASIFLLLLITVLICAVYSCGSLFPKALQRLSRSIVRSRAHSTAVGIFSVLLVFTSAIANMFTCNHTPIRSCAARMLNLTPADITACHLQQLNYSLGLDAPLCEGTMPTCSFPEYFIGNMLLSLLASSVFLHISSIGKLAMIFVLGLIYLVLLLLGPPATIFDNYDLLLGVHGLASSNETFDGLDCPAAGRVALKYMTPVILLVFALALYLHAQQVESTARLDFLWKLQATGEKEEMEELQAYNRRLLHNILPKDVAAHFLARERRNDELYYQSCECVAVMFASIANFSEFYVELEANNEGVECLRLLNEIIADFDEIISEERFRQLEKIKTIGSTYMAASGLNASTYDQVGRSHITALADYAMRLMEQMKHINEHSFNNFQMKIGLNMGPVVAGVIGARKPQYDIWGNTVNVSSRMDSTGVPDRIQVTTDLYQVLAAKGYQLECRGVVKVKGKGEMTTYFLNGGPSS
T1 sequence (Q08828 whole entry): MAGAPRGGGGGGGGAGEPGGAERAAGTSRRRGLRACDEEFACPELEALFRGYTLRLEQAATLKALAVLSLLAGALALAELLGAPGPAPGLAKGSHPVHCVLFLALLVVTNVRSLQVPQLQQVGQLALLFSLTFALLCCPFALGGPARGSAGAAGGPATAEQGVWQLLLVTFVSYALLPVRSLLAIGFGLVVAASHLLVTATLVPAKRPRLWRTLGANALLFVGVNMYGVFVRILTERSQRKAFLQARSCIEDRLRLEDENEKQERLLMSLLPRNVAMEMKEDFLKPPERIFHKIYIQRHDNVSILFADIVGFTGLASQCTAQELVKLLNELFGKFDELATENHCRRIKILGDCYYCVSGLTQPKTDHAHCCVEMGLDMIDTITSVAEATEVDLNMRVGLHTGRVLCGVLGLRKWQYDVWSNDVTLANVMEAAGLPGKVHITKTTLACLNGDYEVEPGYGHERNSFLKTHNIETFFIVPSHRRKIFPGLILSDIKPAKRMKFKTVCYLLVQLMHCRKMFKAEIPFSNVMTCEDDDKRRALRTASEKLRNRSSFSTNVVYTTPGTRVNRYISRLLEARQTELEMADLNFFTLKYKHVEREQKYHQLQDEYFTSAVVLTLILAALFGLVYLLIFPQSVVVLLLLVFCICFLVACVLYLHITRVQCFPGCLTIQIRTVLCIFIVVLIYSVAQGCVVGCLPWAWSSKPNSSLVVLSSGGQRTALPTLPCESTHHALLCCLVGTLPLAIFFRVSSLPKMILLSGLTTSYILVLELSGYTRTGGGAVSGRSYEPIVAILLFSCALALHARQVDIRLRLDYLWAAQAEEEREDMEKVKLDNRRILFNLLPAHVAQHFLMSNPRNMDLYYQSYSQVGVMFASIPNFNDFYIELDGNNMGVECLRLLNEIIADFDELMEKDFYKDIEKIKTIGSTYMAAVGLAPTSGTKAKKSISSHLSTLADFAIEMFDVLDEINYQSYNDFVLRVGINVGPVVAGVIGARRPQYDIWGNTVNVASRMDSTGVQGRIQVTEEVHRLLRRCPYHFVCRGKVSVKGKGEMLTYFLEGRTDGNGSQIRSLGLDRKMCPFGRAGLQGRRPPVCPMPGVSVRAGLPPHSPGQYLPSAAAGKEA

## CCCCC/C=C\C/C=C\C/C=C\C/C=C\CCCC(=O)O [Arachidonic acid, Arachidonic ((5Z,8Z,11Z,14Z)-eicosatetraenoic) acid]
[1]
  Effect of lipid on 300 nM Gsα-stimulated mAC1: significantly attenuated
[1]; attenuation of 300 nM Gsα-stimulated activity, read-out: IC50 for mAC1
  IC50: 23 µM
[1]; 6 µM
  activity [%] (100% = 300nM Gsα stimulation): 84% and 119% and 80% and 96% and 100% and 86% and 114% and 97%
[1]; 30 µM
  activity [%] (100% = 300nM Gsα stimulation): 58% and 69% and 46%
[1]; 60 µM
  activity [%] (100% = 300nM Gsα stimulation): 12% and 11%
[1]; 100 µM
  activity [%] (100% = 300nM Gsα stimulation): 12% and 2% and 3%
[2]; 20µM fatty acid concentration
  mAC5 activity [%] (100% = 300nM Gsα stimulation): 97% and 73% and 120% and 131% and 110%
[3]
  mAC8 activity [%] (100% = 300nM Gsα stimulation): 90% and 106% and 87%
[4]; 20 µM
  mAC2 activity [%] (100% = 300nM Gsα stimulation); 20µM fatty acid concentration: 133% and 137% and 152% and 99% and 147%
[5]
  IC50: 36 µM
  Effect of lipid on 300 nM Gsα-stimulated mAC4: significantly attenuated
[5]; 1 µM, 300 nM Gsα, single experiments
  activity [%] (100% = 300nM Gsα stimulation): 68% and 108% and 85% and 103% and 89% and 87% and 67% and 75%
[5]; 3 µM, 300 nM Gsα, single experiments
  activity [%] (100% = 300nM Gsα stimulation): 72% and 95% and 69% and 73% and 97% and 106% and 108%
[5]; 6 µM, 300 nM Gsα, single experiments
  activity [%] (100% = 300nM Gsα stimulation): 70% and 85% and 107% and 83% and 91% and 126%
[5]; 30 µM, 300 nM Gsα, single experiments
  activity [%] (100% = 300nM Gsα stimulation): 84% and 74% and 88%
[5]; 100 µM, 300 nM Gsα, single experiments
  activity [%] (100% = 300nM Gsα stimulation): 22% and 14% and 13%

## CCCCCCCC/C=C\CCCCCCCC(=O)O [Oleic acid, Oleic ((9Z)-octadecenoic) acid]
[1]
  Effect of lipid on 300 nM Gsα-stimulated mAC1: slightly attenuated
[2]; 20µM fatty acid concentration
  mAC5 activity [%] (100% = 300nM Gsα stimulation): 93% and 117% and 135% and 138%
[2]; 20 µM, in words
  Effect of lipid on Gsα-stimulated mAC5: not enhanced; also recorded: unaffected
[2]; [7]
  mAC activity [%] (100% = 300nM Gsα stimulation); 20µM Oleic acid concentration, mAC5: 135% and 138% and 161% and 84% and 105% and 93% and 117%
[2]; Gsα 30 nM
  activity, mAC5 + 20µM Oleic acid: 0.080 cAMP nmol/mg/min
[2]; Gsα 60 nM
  activity, mAC5 + 20µM Oleic acid: 0.233 cAMP nmol/mg/min and 0.334 cAMP nmol/mg/min
[2]; Gsα 100 nM
  activity, mAC5 + 20µM Oleic acid: 0.353 cAMP nmol/mg/min and 0.362 cAMP nmol/mg/min
[2]; Gsα 300 nM
  activity, mAC5 + 20µM Oleic acid: 0.752 cAMP nmol/mg/min and 1.165 cAMP nmol/mg/min
[2]; Gsα 450 nM
  activity, mAC5 + 20µM Oleic acid: 1.160 cAMP nmol/mg/min and 1.405 cAMP nmol/mg/min
[2]; Gsα 600 nM
  activity, mAC5 + 20µM Oleic acid: 1.213 cAMP nmol/mg/min and 1.684 cAMP nmol/mg/min
[2]; Gsα 800 nM
  activity, mAC5 + 20µM Oleic acid: 1.245 cAMP nmol/mg/min and 1.702 cAMP nmol/mg/min
[2]; Gsα 1000 nM
  activity, mAC5 + 20µM Oleic acid: 1.415 cAMP nmol/mg/min and 1.818 cAMP nmol/mg/min
[2]; fatty acid 1 µM, individual experiments
  mAC5 activity [%] (100% = 300nM Gsα stimulation): 126% and 196% and 115% and 78% and 64%
[2]; fatty acid 3 µM, individual experiments
  mAC5 activity [%] (100% = 300nM Gsα stimulation): 142% and 91% and 87%
[2]; fatty acid 6 µM, individual experiments
  mAC5 activity [%] (100% = 300nM Gsα stimulation): 146% and 127% and 77% and 90%
[2]; fatty acid 10 µM, individual experiments
  mAC5 activity [%] (100% = 300nM Gsα stimulation): 126% and 140% and 134% and 93%
[2]; fatty acid 20 µM, individual experiments
  mAC5 activity [%] (100% = 300nM Gsα stimulation): 93% and 117% and 135% and 138%
[2]; mAC5, 20µM Oleic acid concentration, Figure 9 C
  activity [%] (100% = 300nM Gsα stimulation): 161% and 84% and 93% and 117% and 135% and 138%
[6]; 20µM fatty acid concentration
  mAC6 activity [%] (100% = 300nM Gsα stimulation): 92% and 80% and 133%
[6]; 20 µM, in words
  Effect of lipid on 300 nM Gsα-stimulated mAC6: unaffected
[6]; [7]
  mAC activity [%] (100% = 300nM Gsα stimulation); 20µM Oleic acid concentration, mAC6: 92% and 80% and 133%
[3]
  mAC8 activity [%] (100% = 300nM Gsα stimulation): 134% and 139%
[3]; 20 µM, in words
  Effect of lipid on 300 nM Gsα-stimulated mAC8: unaffected
[3]; [7]
  mAC activity [%] (100% = 300nM Gsα stimulation); 20µM Oleic acid concentration, mAC8: 134% and 139%
[4]; 20 µM, in words
  Effect of lipid on 300 nM Gsα-stimulated mAC2: significantly enhanced
[4]; 20 µM
  mAC2 activity [%] (100% = 300nM Gsα stimulation); 20µM fatty acid concentration: 252% and 212% and 173% and 181% and 196% and 228% and 168%
[4]; oleic acid 0.3 µM
  mAC2 activity [%] (100% = 300nM Gsα stimulation): 100%
[4]; oleic acid 1 µM
  mAC2 activity [%] (100% = 300nM Gsα stimulation): 98% and 100% and 117% and 87%
[4]; oleic acid 3 µM
  mAC2 activity [%] (100% = 300nM Gsα stimulation): 82% and 99% and 116% and 107%
[4]; oleic acid 6 µM
  mAC2 activity [%] (100% = 300nM Gsα stimulation): 120% and 95% and 119% and 162% and 110% and 87%
[4]; oleic acid 10 µM
  mAC2 activity [%] (100% = 300nM Gsα stimulation): 157% and 167% and 142% and 171% and 162% and 123%
[4]; oleic acid 20 µM
  mAC2 activity [%] (100% = 300nM Gsα stimulation): 196% and 228% and 168% and 252% and 212% and 173% and 181%
[4]; enhancement of 300 nM Gsα-stimulated activity
  EC50: 8.6 µM
[5]; 20 µM fatty acid, 300 nM Gsα, single experiments
  mAC4 activity [%] (100% = 300nM Gsα stimulation); 20µM fatty acid concentration: 100% and 72% and 120% and 92%
[5]
  Effect of lipid on 300 nM Gsα-stimulated mAC4: unaffected
[5]; [7]
  mAC activity [%] (100% = 300nM Gsα stimulation); 20µM Oleic acid concentration, mAC4: 72% and 92% and 64% and 100%
